Measured values: patent US8895502B2, “β2-glycoprotein I peptide inhibitors” (Kansas State University Research Foundation, priority 2010, dated 2014)
“Also recorded” adds a separate entry of the source. Ends that are not written are not given here.

How the values were obtained:
LTB4 = experiment: Intestinal IR, ex vivo LTB4 generation; type: in vivo, mouse; design: key to LTB4 Production: + indicates significant difference from Sham treated mice; − indicates not significantly different from C57B1/6 sham treated mice; +/− indicates no significant difference from either C57B1/6 mice subjected to either Sham or IR; details: for LTB4 Production: C57Bl/6 mice subjected to IR, peptide 40 μM i.v. 5 min prior to artery occlusion; for IR-induced intestinal LTB4 production: C57Bl/6 mice, peptide 40 μM prior to IR
Method: (§1) C57Bl/6 and Rag-1^−/− mice were subjected to ischemia followed by reperfusion similar to previously described studies (Moses, T. et al., J. Leukoc. Biol. 86:971-980 (2009)). Briefly, ketamine (16 mg/kg) and xylazine (80 mg/kg) were used to anesthetize the mice. Buprenorphine (0.06 mg/kg) was then administered for pain. A midline laparotomy was performed to expose the abdominal cavity of the mice, which were then allowed to equilibrate for 30 min. Body temperature was maintained at 37° C. using a water-circulating heat pad. Placing a warm, saline moistened piece of gauze over the abdominal cavity prevented peritoneal desiccation. […] Ischemia was noted by the intestine changing from a pink color to a gray color. After 30 min of ischemia, the clamp was removed and the intestines were allowed to reperfuse for 5, 10, 15, or 120 min. […] Mice treated with the various β2-GPI peptides underwent the same procedure with i.v. administration of the peptides (40 μM) 5 min prior to artery occlusion. Peptides 296, 305, and 296Cys to Ser were dissolved in N. Saline (0.9% NaCl) and injected i.v. in 100-μL volumes. Peptides 100 and 181 were dissolved in DMSO prior to diluting 1/100 in N. Saline. Additional mice received peptides prior to Sham treatment.
(§2) Ex vivo generation of eicosanoids by mid-jejunal tissue was determined. Immediately after collection, a 2-cm intestinal section from each mouse was minced, washed, resuspended in 37° C. oxygenated Tyrode's buffer (Sigma-Aldrich; St. Louis, Mo.), incubated at 37° C. for 20 minutes, and the supernatant collected. PGE2 and LTB4 concentrations were determined using enzyme immunoassay kits (Cayman Chemical; Ann Arbor, Mich.). IL-6 and IL-12 concentrations were determined using a Milliplex MAP immunoassay kit (Millipore) and read on a Milliplex Analyzer (Millipore). All eicosanoid and cytokine concentrations were standardized to the total tissue protein content.
(§3) Total peroxidase, LTB4, PGE2, IL-6, IL-12p40, and IL-12p70 concentrations were determined using the procedures described in Example 1.

CD31 (PECAM-1) = experiment: Intestinal IR, CD31 immunohistochemistry; type: in vivo, mouse; design: key to CD31 Deposition: + indicates significant difference from Sham treated mice; − indicates not significantly different from C57B1/6 sham treated mice; +/− indicates no significant difference from either C57B1/6 mice subjected to either Sham or IR; details: for CD31 Deposition: C57Bl/6 mice subjected to IR, peptide 40 μM i.v. 5 min prior to artery occlusion; for expression of adhesion molecule CD31 after IR: C57Bl/6 mice, peptide prior to IR
Method: as §1
(§4) After euthanasia, an additional 2-cm intestinal section from each mouse was immediately snap frozen in O.C.T. freezing medium and 8 μm sections were placed on slides for immunohistochemistry. The C3 deposition and F4/80 expression on the tissue sections were detected by staining with a purified rat-anti-mouse C3 (Hycult Biotechnologies; Plymouth Meeting, Pa.) or F4/80 (eBioscience; San Diego, Calif.) antibody followed by a Texas-red conjugated donkey-anti-rat IgG secondary antibody (Jackson Immunoresearch). CD31 (PECAM-1) and CD106 (VCAM-1) were detected by FITC conjugated rat anti-mouse CD31 or CD106 (Biolegend; San Diego, Calif.) antibodies. Each experiment contained serial sections stained with the appropriate isotype control antibodies. All slides were mounted with ProLong Gold (Invitrogen). Images were obtained at room temperature using a Nikon Eclipse 80i microscope equipped with a CoolSnap CF camera (Photometrics) and analyzed using Metavue software (Molecular Devices). The fluorescence was semi-quantitated using Image J software (NIH) using the fluorescent area fraction after setting threshold for each experiment. The average of the isotype control was subtracted from each photo.

[1] = tested on: hypoxic MS-1 endothelial cells; experiment: In vitro hypoxia and immunocytochemistry: β2-GPI / anti-β2-GPI mAb binding to hypoxic endothelial cells; type: cell-based, mouse; details: peptide 40 μM during 4 hours hypoxia
Method: MS-1 endothelial cells were subjected to hypoxia or normoxia to validate β2-GPI binding in vitro. Hypoxic MS-1 endothelial cells (ATCC CRL-2279) received degassed, serum-free DMEM and were placed in a hypoxia chamber containing 94% nitrogen and 5% CO2. Normoxic cells received DMEM supplemented with 10% heat-inactivated sera from Rag-1^−/− mice in 8% CO2. After 4 hours at 37° C., all cells received fresh medium containing 10% heat-inactivated Rag-1^−/− sera and were incubated in normoxic conditions for 1 hour at 37° C. Additional peptide-inhibition studies were performed by addition of peptides (40 μM final concentration) during the hypoxic period. Cells were methanol fixed and stained with the anti-β2-GPI mAb (Millipore; Billerica, Mass.) followed by an anti-mouse IgG antibody to determine β2-GPI binding. Anti-β2-GPI binding was determined by allowing anti-β2-GPI mAb (Millipore) to bind during the 1 hour normoxic period. The cells were then stained with anti-mouse IgG antibodies (Jackson ImmunoResearch; West Grove, Pa.) as previously described (Fleming, S. D. et al., J. Immunol. 173:7055-7061 (2004)). Slides were mounted with DAPI (Blue) to identify the nuclei. The fluorescence was determined in a blind manner using a Nikon 80i fluorescent microscope with a 40× Plan Fluor objective and images acquired using a CoolSnap Cf camera (Photometrics; Tucson, Ariz.) and MetaVue Imaging software (Molecular Devices; Sunnyvale, Calif.). Each photomicrograph in the Figures is representative of 3 experiments with 4-6 photomicrographs per treatment group in each experiment. Bar=40 μm. Hypoxia was conducted similar to previous studies with the following modifications (Banerjee, S. et al., Reprod. Biol. Endocrinol. 7:4 (2009)). Hypoxic cells received degassed, serum-free DMEM and were placed in a hypoxia chamber containing 94% nitrogen, 5% CO2, and 1% O2. Normoxic cells received normal DMEM with 10% FBS in 8% CO2. After 2 hours at 37° C., all cells received fresh medium containing 10% heat-inactivated Rag-1^−/− sera and then were incubated under normoxic conditions for 1 hour at 37° C. Cells receiving β2-GPI peptides were administered the peptides (40 μM) during the 2 hours of either hypoxia or normoxia. IgG binding was determined using anti-mouse IgG antibodies (Jackson ImmunoResearch) as previously described (Fleming, S. D. et al., J. Immunol. 173:7055-7061 (2004)). Similarly, after Sham or IR, intestinal sections from peptide-treated mice were stained with anti-IgG antibodies to determine antibody deposition. The fluorescence was determined in a blind manner using a Nikon 80i fluorescent microscope and images acquired using a CoolSnap Cf camera (Photometrics) and MetaVue Imaging software (Molecular Devices).

IL-6 = experiment: Intestinal IR, ex vivo IL-6 generation; type: in vivo, mouse; design: key to IL-6 Induction: + indicates significant difference from Sham treated mice; − indicates not significantly different from C57B1/6 sham treated mice; +/− indicates no significant difference from either C57B1/6 mice subjected to either Sham or IR; details: for IL-6 Induction: C57Bl/6 mice subjected to IR, peptide 40 μM i.v. 5 min prior to artery occlusion; for IR induced IL-6 production: C57Bl/6 mice, peptide prior to IR
Method: as §1, §2, §3

CD106 (VCAM-1) = experiment: Intestinal IR, VCAM immunohistochemistry; type: in vivo, mouse; details: C57Bl/6 mice, peptide prior to IR, data not shown
Method: as §1, with “Peptides 100 and 181 were dissolved in DMSO prior to diluting 1/100 in N. Saline. Additional mice received peptides prior to Sham treatment.” left out
as §4, with “Each experiment contained serial sections stained with the appropriate isotype control antibodies. All slides were mounted with ProLong Gold (Invitrogen).” left out, “The average of the isotype control was subtracted from each photo.” left out

| Substance | LTB4 Production (LTB4) | IR-induced intestinal LTB4 production (LTB4) | CD31 Deposition (CD31 (PECAM-1)) | expression of adhesion molecule CD31 after IR (CD31 (PECAM-1)) | anti-β2-GPI mAb binding to hypoxic MS-1 cells [1] | β2-GPI binding to hypoxic endothelial cells [1] | IL-6 Induction (IL-6) | IR induced IL-6 production (IL-6) | expression of adhesion molecule VCAM after IR (CD106 (VCAM-1)) |
| --- | --- | --- | --- | --- | --- | --- | --- | --- | --- |
| H-IHFYCKNKEKKCSYTVEAHCRDGTI-OH (cysteine pairing not given here) [peptide 296] | − | attenuated; also recorded: blocked | − | inhibited | did not bind | capable of preventing β2-GPI from binding | − | attenuated; also recorded: inhibit | inhibited |
| H-KNISFACNPGFFLNG-NH2 [peptide 100, 16, reference compound] | + | sustained inflammation similar to untreated mice | + | significantly different from both Sham and IR treated mice | did not inhibit antibody binding |  | +/− | attenuated IL-6 production |  |
| H-KKCSYTVEAHCRDGTIEIPSCFKEHS-OH (cysteine pairing not given here) [peptide 305, 10] | + | did not attenuate | + | inhibited | did not bind | capable of preventing β2-GPI from binding | − | attenuated; also recorded: inhibited | inhibited |
| H-IPSCFKEHSSLAFWKTDASELTPC-NH2 (cysteine pairing not given here) [peptide 322, 18] | + | sustained inflammation similar to untreated mice | + |  | did not inhibit antibody binding |  | + | did not inhibit |  |
| H-IHFYSKNKEKKSSYTVEAHSRDGTI-OH [peptide 296Cys-Ser] | − | attenuated; also recorded: blocked | − | inhibited |  | attenuated β2-GPI binding | − | attenuated; also recorded: inhibit | inhibited |
